Test results reported in US6255317A, “Cholesterol biosynthesis inhibitors” (Hanwha Chemical Corporation, priority 1998, dated 2001).

target: T1, sterol 14-reductase (Rattus norvegicus, UniProt A0ACM8Q6X4); assay: Sterol 14-reductase assay with rat liver microsomes (substrate 4,4-dimethyl-5α-cholesta-7,14-dien-3β-ol, GLC); format: biochemical, Sprague-Dawley rats; conditions: not given
T1 construct: to give a microsome which was used as an enzyme source of sterol 14-reductase; from tissue
T1 sequence (A0ACM8Q6X4 1-418): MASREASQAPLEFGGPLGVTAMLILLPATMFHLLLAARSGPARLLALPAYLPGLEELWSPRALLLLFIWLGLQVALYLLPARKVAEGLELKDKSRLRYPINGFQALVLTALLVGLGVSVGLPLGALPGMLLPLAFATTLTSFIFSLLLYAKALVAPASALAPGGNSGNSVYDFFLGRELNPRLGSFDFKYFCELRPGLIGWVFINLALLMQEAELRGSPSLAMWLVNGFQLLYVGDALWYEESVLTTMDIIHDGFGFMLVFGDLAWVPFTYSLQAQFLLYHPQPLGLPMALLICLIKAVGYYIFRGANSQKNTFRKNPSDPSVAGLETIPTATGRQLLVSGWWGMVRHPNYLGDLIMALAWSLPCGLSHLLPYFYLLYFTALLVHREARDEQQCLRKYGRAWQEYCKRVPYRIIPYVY

Row | inhibition of sterol 14-reductase (in words) | Structure (SMILES)
1 | effectively inhibit | COc1cc2c(cc1OC)-c1c(C)c3ccc(OC)c(OC)c3c[n+]1CC2

same assay, conditions: dissolved in DMSO; read-out: concentration of active ingredient in the assay at which 50% of inhibitory effect was observed (sterol 14-reductase)

Row | IC50 | Structure (SMILES)
2 | 40000 to 50000 µM | COc1cc2c(cc1OC)-c1c(C)c3ccc(OC)c(OC)c3c[n+]1CC2

same assay, conditions: read-out: Enzyme Activity (relative in vitro activity for sterol 14-reductase, IC50 class)

Row | IC50 | Structure (SMILES)
3 | ≥ 100 µM | COc1cc2c(cc1OC)C1=Cc3ccc(OC)c(OC)c3C(C)N1CC2 (stereo not drawn) [Compound No. 33, 8-Methyldihydropalmatine]
4 | 10 to 100 µM | CCC1=C2c3cc(OC)c(OC)cc3CCN2C(CC(=O)C(C)C)c2c1ccc(OC)c2OC (stereo not drawn) [Compound No. 39, 8-(3-methylbutan-2-one-1-yl)-13-ethyldihydro palmatine]
5 | 10 to 100 µM | CCCc1c2[n+](cc3c(OC)c(OC)ccc13)CCc1cc(OC)c(OC)cc1-2 [Compound No. 11, 13-n-propylpalmatine]
6 | ≥ 100 µM | CCOC(=O)Cc1c2[n+](cc3c(OC)c(OC)ccc13)CCc1cc3c(cc1-2)OCO3 [Compound No. 24, 13-Ethoxycarbonylmethylberberine]
7 | 10 to 100 µM | CCCCc1c2[n+](cc3c(OC)c(OC)ccc13)CCc1cc(OC)c(OC)cc1-2 [Compound No. 12, 13-n-butylpalmatine]
8 | ≥ 100 µM | CCC1=C2c3cc(OC)c(OC)cc3CCN2C(C)c2c1ccc(OC)c2OC (stereo not drawn) [Compound No. 48, 8-Methyl-13-ethyldihydropalmatine]
9 | ≥ 100 µM | CCOC(=O)Cc1c2[n+](cc3c(OC)c(OC)ccc13)CCc1cc(OC)c(OC)cc1-2 [Compound No. 20, 13-Ethoxycarbonylmethylpalmatine]
10 | ≥ 100 µM | CCC1=C2c3cc(OC)c(OC)cc3CCN2C(CC#N)c2c1ccc(OC)c2OC (stereo not drawn) [Compound No. 41, 8-Cyanomethyl-13-ethyldihydropalmatine]
11 | ≥ 100 µM | CCC1=C2c3cc(OC)c(OC)cc3CCN2C(CC)c2c1ccc(OC)c2OC (stereo not drawn) [Compound No. 49, 8-Ethyl-13-ethyldihydropalmatine]
12 | 10 to 100 µM | COc1cc2c(cc1OC)-c1c(CCCI)c3ccc(OC)c(OC)c3c[n+]1CC2 [Compound No. 16, 13-Iodopropylpalmatine]
13 | 10 to 100 µM | COc1ccc2c(C)c3[n+](cc2c1OC)CCc1cc(O)c(O)cc1-3 [Compound No. 2, 2,3-Dihydroxy-13-methylberberine]
14 | ≥ 100 µM | COc1cc2c(cc1OC)-c1c(CC3CC3)c3ccc(OC)c(OC)c3c[n+]1CC2 [Compound No. 13, 13-(cyclopropylmethyl)palmatine]
15 | ≥ 100 µM | CCCCCCCCc1c2[n+](cc3c(OC)c(OC)ccc13)CCc1cc(OC)c(OC)cc1-2 [Compound No. 14, 13-n-octylpalmatine]
16 | 10 to 100 µM | CCC1=C2c3cc(OC)c(OC)cc3CCN2C(CC(=O)CC(C)C)c2c1ccc(OC)c2OC (stereo not drawn) [Compound No. 40, 8-(4-methylpentan-2-one-1-yl)-13-ethyldihydropalmatine]
17 | ≥ 100 µM | CCOC(=O)c1c2[n+](cc3c(OC)c(OC)ccc13)CCc1cc(OC)c(OC)cc1-2 [Compound No. 19, 13-Ethoxycrbonylpalmatine]
18 | ≥ 100 µM | COc1cc2c(cc1OC)-c1c(CC(=O)O)c3ccc(OC)c(OC)c3c[n+]1CC2 [Compound No. 21, 13-Carboxymethylpalmatine]
19 | 10 to 100 µM | COc1ccc2c(C)c3[n+](cc2c1OC)CCc1cc2c(cc1-3)OCO2 [Compound No. 1, 13-Methylberberine]
20 | ≥ 100 µM | CCC1c2c(ccc(OC)c2OC)C=C2c3cc(OC)c(OC)cc3CCN21 (stereo not drawn) [Compound No. 34, 8-Ethyldihydropalmatine]
21 | 10 to 100 µM | CCc1c2[n+](cc3c(NCCO)c(OC)ccc13)CCc1cc(OC)c(OC)cc1-2 [Compound No. 25, 9-Hydroxyethylamino-13-ethylberberine]
22 | ≥ 100 µM | COc1cc2c(cc1OC)-c1c(CC3CCCCC3)c3ccc(OC)c(OC)c3c[n+]1CC2 [Compound No. 15, 13-(cyclohexylmethyl)palmatine]
23 | ≥ 100 µM | C=CCc1c2[n+](cc3c(OC)c(OC)ccc13)CCc1cc3c(cc1-2)OCO3 [Compound No. 9, 13-Allylberberine]
24 | ≥ 100 µM | COC(=O)C(C)c1c2[n+](cc3c(OC)c(OC)ccc13)CCc1cc3c(cc1-2)OCO3 (stereo not drawn) [Compound No. 22, 13-(1-methoxycarbonylethyl)berberine]

More lines, now with the values behind:

Row | Structure (SMILES) | IC50
25 | CCCCC1c2c(ccc(OC)c2OC)C(CC)=C2c3cc(OC)c(OC)cc3CCN21 (stereo not drawn) [Compound No. 50, 8-n-butyl-13-ethyldihydropalmatine] | ≥ 100 µM
26 | C=CCc1c2[n+](cc3c(O)c(O)ccc13)CCc1cc(O)c(O)cc1-2 [Compound No. 10, 2,3,9,10-Tetrahydroxy-13-allylberberine] | ≥ 100 µM
27 | COc1ccc2c(c1OC)C(C)N1CCc3cc4c(cc3C1=C2)OCO4 (stereo not drawn) [Compound No. 27, 8-Methyldihydroberberine] | ≥ 100 µM
28 | Oc1cc2c(cc1O)-c1cc3ccc(O)c(O)c3c[n+]1CC2 [Compound No. 3, 2,3,9,10-Tetrahydroxyberberine] | ≥ 100 µM
29 | CCc1c2[n+](cc3c(O)c(O)ccc13)CCc1cc(O)c(O)cc1-2 [Compound No. 7, 2,3,9,10-Tetrahydroxy-13-ethylberberine] | 10 to 100 µM
30 | COc1ccc2c(c1OC)C(CC1CCCCC1)N1CCc3cc4c(cc3C1=C2)OCO4 (stereo not drawn) [Compound No. 31, 8-Cyclohexylmethyldihydroberberine] | ≥ 100 µM
31 | CCOc1cc2c(cc1OCC)C1=C(CC)c3ccc(OCC)c(OCC)c3C(CC(C)=O)N1CC2 (stereo not drawn) [Compound No. 44, 8-Acetonyl-13-ethyl-2,3,9,10-tetraethoxy-dihydroprotoberberine] | 10 to 100 µM
32 | CCC1=C2c3cc(OC)c(OC)cc3CCN2C(C2CCCCC2=O)c2c1ccc(OC)c2OC (stereo not drawn) [Compound No. 43, 8-(cyclohexanon-2-yl)-13-ethyldihydropalmatine] | ≥ 100 µM
33 | Cc1c2[n+](cc3c(O)c(O)ccc13)CCc1cc(O)c(O)cc1-2 [Compound No. 4, 2,3,9,10-Tetrahydroxy-13-methylberberine] | 10 to 100 µM
34 | COc1ccc2c(c1OC)C(C(C)C)N1CCc3cc4c(cc3C1=C2)OCO4 (stereo not drawn) [Compound No. 32, 8-i-propyldihydroberberine] | ≥ 100 µM
35 | CCC1c2c(ccc(OC)c2OC)C=C2c3cc4c(cc3CCN21)OCO4 (stereo not drawn) [Compound No. 28, 8-Ethyldihydroberberine] | ≥ 100 µM
36 | CCCCOc1cc2c(cc1OCCCC)-c1cc3ccc(OCCCC)c(OCCCC)c3c[n+]1CC2 [Compound No. 17, 2,3,9,10-Tetra-n-butoxyprotoberberine] | 10 to 100 µM
37 | COc1ccc2c(C3CCOC3=O)c3[n+](cc2c1OC)CCc1cc2c(cc1-3)OCO2 (stereo not drawn) [Compound No. 23, 13-α-(γ-lactonyl)berberine] | ≥ 100 µM
38 | CCCC1c2c(ccc(OC)c2OC)C=C2c3cc4c(cc3CCN21)OCO4 (stereo not drawn) [Compound No. 29, 8-n-propyldiydroberberine] | ≥ 100 µM
39 | COc1ccc2c(c1OC)C(C1CC1)N1CCc3cc4c(cc3C1=C2)OCO4 (stereo not drawn) [Compound No. 36] | ≥ 100 µM
40 | CCCCCCCCC1c2c(ccc(OC)c2OC)C=C2c3cc4c(cc3CCN21)OCO4 (stereo not drawn) [Compound No. 35] | ≥ 100 µM
41 | CCCCC1c2c(ccc(OC)c2OC)C=C2c3cc4c(cc3CCN21)OCO4 (stereo not drawn) [Compound No. 30, 8-n-butyldihydroberberine] | ≥ 100 µM
42 | CCOc1cc2c(cc1OCC)C1=C(CC)c3ccc(OCC)c(OCC)c3C(CC(=O)C(C)C)N1CC2 (stereo not drawn) [Compound No. 45, 8-(3-methylbutan-2-one-1-yl)-13-ethyl-2,3,9,10-tetra ethoxydihydroprotoberberine] | 10 to 100 µM
